CCC(C)n1ncn(-c2ccc(N3CCN(c4ccc(OC[C@H]5CO[C@](Cn6cncn6)(c6ccc(Cl)cc6Cl)O5)cc4)CC3)cc2)c1=O (mixture of isomers)
solubility (mole fraction)
Settings | in chloroform | in dichloromethane | in ethanol | in methanol | in n-butanol | in n-propanol
288.15 K | 0.0459 | 0.0287 | 1.07e-05 | 2.35e-05 | 1.43e-05 | 1.24e-05
293.15 K | 0.048 | 0.0306 | 1.43e-05 | 2.97e-05 | 1.82e-05 | 1.61e-05
298.15 K | 0.0503 | 0.0326 | 1.89e-05 | 3.78e-05 | 2.28e-05 | 2.09e-05
303.15 K | 0.0525 | 0.0347 | 2.44e-05 | 4.71e-05 | 2.87e-05 | 2.68e-05
308.15 K | 0.0548 | 0.0369 | 3.18e-05 | 5.88e-05 | 3.52e-05 | 3.36e-05

— BigSolDB 2.1
